Laboratory results as given in patent US20220072128A1, “ULTRASOUND-INDUCED CONVECTION FOR DRUG DELIVERY AND TO DRIVE GLYMPHATIC OR LYMPHATIC FLOWS” (The Board of Trustees of the Leland Stanford Junior …, priority 2020, published 2022).
“Also recorded” adds a separate entry of the source. Blank lines part the entries; values can stand above or below the molecule they belong to.

What was measured:
[1] = Quantitative T1-mapping MRI of glymphatic transport of intrathecally (cisterna magna) injected Gd-chelate into the brain, transcranial ultrasound vs sham; assay type: in vivo, rat; set-up: mean gadolinium-enhanced volume: unit not given here
Protocol: (§1) Animals. The Institutional Animal Care and Use Committees of Stanford University approved all animal experiments. Tests were performed in 42 male Long-Evans rats with bodyweight 300-350 gm (Charles River Laboratories, Wilmington, Mass., USA). Animals were randomly assigned to one of two groups: (1) no treatment (Sham), and (2) treatment (Ultrasound). Ultrasound (0.25 MI in situ, 7.7% duty cycle for 10 min) or sham was applied transcranially throughout the brain (FIG. 1A). Before each procedure, the fur on the neck was shaved and a cisterna magna injection of a gadolinium (Gd) chelate (Multihance, Bracco Diagnostics, NJ, USA) was performed while the animal was anesthetized under isoflurane. The body temperature, cardiac and respiratory rates, and O2 saturation were monitored throughout the experiment and the isoflurane level was titrated to keep these parameters constant; environmental heating was used to help maintain body temperature. Localizer, FLASH-T1-3D, T1-mapping, and T2*-weighted MR images were taken to visualize glymphatic transport across the brain, to quantify Gd-chelate kinetic parameters, and to evaluate for parenchymal damage. In separate cohorts, either of two different sized optical tracers, a small molecule (IR800CW Carboxylate, LICOR, Lincoln, Nebr., USA; ˜1 kDa) or a large molecule (Panitumumab-IRDye800: ˜150 kDa, 5 nM, produced under GMP at the Leidos Biomedical Research Center, Frederick, Md., USA) (39) were co-delivered with the Gd-chelate to model the delivery of similar-sized therapeutic agents.
Intrathecal Cisterna Magna Injection For anesthesia, the animals were induced with 5% isoflurane in oxygen using an induction chamber and then switched to a maintenance dose of 2%. The animal was positioned in a stereotaxic frame (Stoelting, Wood Dale, Ill., USA), immobilized with ear bars, and then the head flexed to 45 degrees. A 27-gauge catheter (Butterfly Needle, SAI Infusion Technology, Lake Villa, Ill., USA) was inserted in the cisterna magna to inject up to 80 μl of tracers (Gd-chelate: MultiHance, gadobenate dimeglumine; Bracco Diagnostics Inc, NJ, USA; 0.21 ml/kg) slowly over 30 seconds. To model the delivery of similar-sized therapeutic agents, two different sized molecules, free dye (IRDye800CW Carboxylate, LICOR, Lincoln, Nebr., USA; ˜1 kDa; 36 nmol/kg) and IR dye-conjugated antibody (Panitumumab-IRDye800: ˜150 kDa; 0.133 mg/kg) were co-delivered with the Gd-chelate. The respiratory rate (45-50 breaths per minute), and normal body temperature (36.5-37.5° C.) were maintained throughout the experiment through titration of isoflurane dose and with environmental heating.
Magnetic Resonance Imaging Protocol. Magnetic Resonance Imaging (MRI) (an actively-shielded Bruker 7T horizontal bore scanner (Bruker Corp, Billerica Mass.), with International Electric Co. (IECO) gradient drivers, a 120 mm ID shielded gradient insert (600 mT/m, 1000 T/m/s), AVANCE III electronics; 8-channel multi-coil RF and multinuclear capabilities and volume RF coils; and the supporting Paravision 6.0.1 platform) was used to visualize glymphatic transport of Gd-chelate into the brain and to make quantitative T1-maps. The facility provides isoflurane anesthesia in medical-grade oxygen, and physiological monitoring of the subject including ECG, pulse oximetry, respiration, and temperature feedback for core body temperature maintenance by warm airflow over the animal. Following cisterna magna contrast agent injection, an MRI compatible animal FUS system (Image Guided Therapy—IGT, Pessac, France) was used in all experiments. Animals were placed in a prone position in a plastic stereotactic frame that has a single channel radiofrequency transmit-receive head coil (IGT) which is coupled to the FUS system. Animals were immobilized in the frame with ear bars and a bite bar. Noninvasive, MRI-compatible monitors for the respiratory rate and body temperature were used during the imaging session. […]

[2] = Near-infrared fluorescence imaging of brain slices after intrathecal co-delivery of optical tracers, transcranial ultrasound vs sham; assay type: in vivo, rat; conditions: about 2 hours after intrathecal delivery, 10 min ultrasound
Protocol: as §1, with “In separate cohorts, either of two different sized optical tracers, a small molecule (IR800CW Carboxylate, LICOR, Lincoln, Nebr., USA; ˜1 kDa) or a large molecule (Panitumumab-IRDye800: ˜150 kDa, 5 nM, produced under GMP at the Leidos Biomedical Research Center, Frederick, Md., USA) (39) were co-delivered with the Gd-chelate to model the delivery of similar-sized therapeutic agents.” left out
Fluorescence Imaging. […] Tissue sections were thaw-mounted on microscope glass slides (Fisher, Pittsburgh, Pa.), fixed the tissue-slides using 4% paraformaldehyde, and applied DAPI for fluorescence imaging. […]

time at which perivascular influx of CSF into the brain is initially observed ([1]; 3D T1w MRI, after intrathecal administration): 12 min
brain volume containing a resolvable amount of contrast agent, ultrasound versus sham ([1]; T1-mapping MRI over time): significantly larger volume of brain
time by which cleared from the CSF-ISF spaces ([1]; T1w MRI after cisternal injection): ≤ 3 h
mean gadolinium-enhanced volume ([1]; Ultrasound cohort (0.25 MI, 10 min, applied at 23 min), 12 min baseline): 0.18±0.07
mean gadolinium-enhanced volume ([1]; Ultrasound cohort, 35 min): 0.43±0.16
mean gadolinium-enhanced volume ([1]; Ultrasound cohort, 70 min): 0.44±0.17
mean gadolinium-enhanced volume ([1]; Ultrasound cohort, 105 min): 0.45±0.25
mean gadolinium-enhanced volume ([1]; Ultrasound cohort, 180 min): 0.18±0.24
mean gadolinium-enhanced volume ([1]; Ultrasound cohort, 240 min): 0.17±0.24
increase of peak parenchymal uptake with ultrasound ([1]; low-intensity transcranial scanning ultrasound vs sham): 72-101%
mean gadolinium-enhanced volume ([1]; sham cohort, 12 min after intrathecal injection, mean ± S.D.): 0.17±0.084
mean gadolinium-enhanced volume ([1]; sham cohort, 35 min): 0.25±0.15
mean gadolinium-enhanced volume ([1]; sham cohort, 70 min): 0.22±0.1
mean gadolinium-enhanced volume ([1]; sham cohort, 105 min): 0.23±0.11
mean gadolinium-enhanced volume ([1]; sham cohort, 180 min): 0.11±0.12
mean gadolinium-enhanced volume ([1]; sham cohort, 240 min): 0.06±0.04
clearance timeline from the brain ([1]; with ultrasound): 3 h
residual tracer in the brain ([1]; with ultrasound, 3 h post-injection): increased residual tracer in the brain
time of peak parenchymal uptake ([1]; with ultrasound, from injection): 105 min
time of peak brain concentration ([1]; without further intervention (no ultrasound), after intrathecal injection): approximately 35 min
time to clear from the brain interstitial compartment ([1]; without further intervention, from injection): ≤ 3 h
Molecule: CNC[C@H](O)[C@@H](O)[C@H](O)[C@H](O)CO.CNC[C@H](O)[C@@H](O)[C@H](O)[C@H](O)CO.O=C([O-])CN(CCN(CC(=O)[O-])CC(=O)O)CCN(CC(=O)O)C(COCc1ccccc1)C(=O)[O-].[Gd+3] (stereo not drawn) [Gd-chelate, gadobenate dimeglumine]
Gd-chelate deposition in the brain ([1]; T1w MRI, 24-72 h after ultrasound intervention): no any evidence of Gd deposition; also recorded: no prolonged Gd-chelate deposition

Molecule: Panitumumab-IRDye800: therapeutic antibody panitumumab (~150 kDa, EGFR-targeted) conjugated with the IR dye; large optical tracer
brain penetration (near-infrared dye-enhanced area), ultrasound compared to sham [2]: significantly greater degree with ultrasound
brain penetration (near-infrared dye-enhanced area), ultrasound compared to sham ([2]; listed as panitumumab): penetrated to a greater degree into the brain
